The values below come from patent publication US7625894B2, “Pyrrolo[2,3-d]Pyrimidines as Protein Tyrosine Kinase Inhibitors” (Novartis AG, priority 2004, dated 2009).

The test deals with c-erbB2 tyrosine kinase (HER-2) (Homo sapiens, UniProt P04626). Description: Inhibition of c-erbB2 tyrosine kinase (HER-2). It counts as biochemical. On the set-up: dose or concentration left out as unconfirmed. The source says:
The inhibition of c-erbB2 tyrosine kinase (HER-2) can be measured, for example, in the same way as the inhibition of EGF-R protein kinase, using known procedures.

In the case of `CN1CCN(C(=O)c2ccc(-c3cc4c(N(C)C)ncnc4[nH]3)cc2)CC1` [Example 3, [4-(4-Dimethylamino-7H-pyrrolo[2,3-d]pyrimidin-6-yl)-phenyl]-(4-methyl-piperazin-1-yl)-methanone], the “HER-2/%-inh. [%]” value was 78%.
On to `CN1CCN(Cc2ccc(-c3cc4c(N(C)C)ncnc4[nH]3)cc2)CC1` [Example 4, Dimethyl-{6-[4-(4-methyl-piperazin-1-ylmethyl)-phenyl]-7H-pyrrolo[2,3-d]pyrimidin-4-yl}-amine], for which the “HER-2/%-inh. [%]” value came to 87%.
On to `CCN(CC)CCCNC(=O)c1ccc(-c2cc3c(N(C)C)ncnc3[nH]2)cc1` [Example 5, N-(3-Diethylamino-propyl)-4-(4-dimethylamino-7H-pyrrolo[2,3-d]pyrimidin-6-yl)-benzamide], for which the “HER-2/%-inh. [%]” value came out at 78%.
With `CN(C)c1ncnc2[nH]c(-c3ccc(C(=O)N4CCOCC4)cc3)cc12` [Example 6, [4-(4-Dimethylamino-7H-pyrrolo[2,3-d]pyrimidin-6-yl)-phenyl]-morpholin-4-yl-methanone], the “HER-2/%-inh. [%]” value is on record as 80%.
Regarding `CN(C)c1ncnc2[nH]c(-c3ccc(C(=O)NCCCN4CCOCC4)cc3)cc12` [Example 7, 4-(4-Dimethylamino-7H-pyrrolo[2,3-d]pyrimidin-6-yl)-N-(3-morpholin-4-yl-propyl)-benzamide], the “HER-2/%-inh. [%]” value came out at 71%.
The value for `CNc1ncnc2[nH]c(-c3ccc(C(=O)N4CCN(C)CC4)cc3)cc12` [Example 12, [4-(4-Methylamino-7H-pyrrolo[2,3-d]pyrimidin-6-yl)-phenyl]-(4-methyl-piperazin-1-yl)-methanone] was 85%; that for `CN1CCN(C(=O)c2ccc(-c3cc4c(NCCCO)ncnc4[nH]3)cc2)CC1` [Example 15, {4-[4-(3-Hydroxy-propylamino)-7H-pyrrolo[2,3-d]pyrimidin-6-yl]-phenyl}-(4-methyl-piperazin-1-yl)-methanone] was 88%; that for `CNc1ncnc2[nH]c(-c3ccc(CN4CCN(C)CC4)cc3)cc12` [Example 16, Methyl-{6-[4-(4-methyl-piperazin-1-ylmethyl)-phenyl]-7H-pyrrolo[2,3-d]pyrimidin-4-yl}-amine] was 93%.
Consider `CCCNc1ncnc2[nH]c(-c3ccc(C(=O)N4CCN(C)CC4)cc3)cc12` [Example 17, (4-Methyl-piperazin-1-yl)-[4-(4-propylamino-7H-pyrrolo[2,3-d]pyrimidin-6-yl)-phenyl]-methanone], for which the “HER-2/%-inh. [%]” value was determined as 87%.
As for `CCCNc1ncnc2[nH]c(-c3ccc(CN4CCN(C)CC4)cc3)cc12` [Example 18, {6-[4-(4-Methyl-piperazin-1-ylmethyl)-phenyl]-7H-pyrrolo[2,3-d]pyrimidin-4-yl}-propyl-amine], the “HER-2/%-inh. [%]” value stood at 94%.
Take `CCCN(C)c1ncnc2[nH]c(-c3ccc(CN4CCN(C)CC4)cc3)cc12` [Example 19, Methyl-{6-[4-(4-methyl-piperazin-1-ylmethyl)-phenyl]-7H-pyrrolo[2,3-d]pyrimidin-4-yl}-propyl-amine]: the “HER-2/%-inh. [%]” value amounted to 89%.
For the compound `CN(C)c1ncnc2[nH]c(-c3ccc(Cn4ccnc4)cc3)cc12` [Example 24, [6-(4-Imidazol-1-ylmethyl-phenyl)-7H-pyrrolo[2,3-d]pyrimidin-4-yl]-dimethylamine], the “HER-2/%-inh. [%]” value was 93%.
The value for `CN(C)c1ncnc2[nH]c(-c3ccc(Cc4ccc[nH]4)cc3)cc12` [Example 25, Dimethyl-{6-[4-(1H-pyrrol-2-ylmethyl)-phenyl]-7H-pyrrolo[2,3-d]pyrimidin-4-yl}-amine] was 39%; that for `CN(C)c1ncnc2[nH]c(-c3ccc(Cn4cnnn4)cc3)cc12` [Example 27, Dimethyl-[6-(4-tetrazol-1-ylmethyl-phenyl)-7H-pyrrolo[2,3-d]pyrimidin-4-yl]-amine] was 75%.
`CN(C)c1ncnc2[nH]c(-c3ccc(CNCCCO)cc3)cc12` [Example 28, 3-[4-(4-Dimethylamino-7H-pyrrolo[2,3-d]pyrimidin-6-yl)-benzylamino]-propan-1-ol]: the “HER-2/%-inh. [%]” value is 85%.
The value for `COCCN(C)Cc1ccc(-c2cc3c(N(C)C)ncnc3[nH]2)cc1` [Example 29, [6-(4-{[(2-Methoxy-ethyl)-methyl-amino]-methyl}-phenyl)-7H-pyrrolo[2,3-d]pyrimidin-4-yl]-dimethyl-amine] was 79%; that for `CCC(O)(CC)c1ccc(-c2cc3c(NCCCn4cccc4)ncnc3[nH]2)cc1` [Example 33, 3-{4-[4-(3-Pyrrol-1-yl-propylamino)-7H-pyrrolo[2,3-d]pyrimidin-6-yl]-phenyl}-pentan-3-ol] was 88%.
On to `CN(C)c1ncnc2[nH]c(-c3ccc(C(C)(C)O)cc3)cc12` [Example 34, 2-[4-(4-Dimethylamino-7H-pyrrolo[2,3-d]pyrimidin-6-yl)-phenyl]-propan-2-ol], for which the “HER-2/%-inh. [%]” value is 57%.
Take “[4-(4-Methylamino-7H-pyrrolo[2,3-d]pyrimidin-6-yl)-phenyl]-morpholin-4-yl-methanone [Example 2]”: the “HER-2/%-inh. [%]” value turned out to be 65%.
